Source: ChEMBL document CHEMBL5113372, “Paradigm shift of "classical" HDAC inhibitors to "hybrid" HDAC inhibitors in therapeutic interventions” (Eur J Med Chem, 2021)
One block for each molecule: values may come before it.

Tests used:
Histone deacetylase 5 = Histone deacetylase 5 (Homo sapiens, UniProt Q9UQL6); experiment: Inhibition of HDAC5 (unknown origin)
Histone deacetylase 4 = Histone deacetylase 4 (Homo sapiens, UniProt P56524); experiment: Inhibition of HDAC4 (unknown origin)
Histone deacetylase 1 [1] = biological target: T1, Histone deacetylase 1 (Homo sapiens, UniProt Q13547); experiment: Inhibition of HDAC1 (unknown origin)
T1 sequence (Q13547 whole entry): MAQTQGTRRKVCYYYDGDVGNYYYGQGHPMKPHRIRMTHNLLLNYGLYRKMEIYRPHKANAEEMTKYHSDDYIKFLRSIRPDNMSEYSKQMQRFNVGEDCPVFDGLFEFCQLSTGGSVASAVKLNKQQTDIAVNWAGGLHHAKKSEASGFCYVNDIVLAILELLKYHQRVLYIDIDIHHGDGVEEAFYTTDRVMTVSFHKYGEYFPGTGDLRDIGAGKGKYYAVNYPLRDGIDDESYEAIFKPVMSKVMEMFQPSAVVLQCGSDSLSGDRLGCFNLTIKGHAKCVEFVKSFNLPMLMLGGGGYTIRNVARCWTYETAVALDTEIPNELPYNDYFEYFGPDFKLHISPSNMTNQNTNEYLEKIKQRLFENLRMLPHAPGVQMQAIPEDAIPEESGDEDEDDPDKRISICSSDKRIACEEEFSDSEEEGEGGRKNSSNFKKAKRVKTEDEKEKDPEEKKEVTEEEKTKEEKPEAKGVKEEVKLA

Histone deacetylase 2 [2] = biological target: T2, Histone deacetylase 2 (Homo sapiens, UniProt Q92769); experiment: Inhibition of HDAC2 (unknown origin)
T2 sequence (Q92769 whole entry): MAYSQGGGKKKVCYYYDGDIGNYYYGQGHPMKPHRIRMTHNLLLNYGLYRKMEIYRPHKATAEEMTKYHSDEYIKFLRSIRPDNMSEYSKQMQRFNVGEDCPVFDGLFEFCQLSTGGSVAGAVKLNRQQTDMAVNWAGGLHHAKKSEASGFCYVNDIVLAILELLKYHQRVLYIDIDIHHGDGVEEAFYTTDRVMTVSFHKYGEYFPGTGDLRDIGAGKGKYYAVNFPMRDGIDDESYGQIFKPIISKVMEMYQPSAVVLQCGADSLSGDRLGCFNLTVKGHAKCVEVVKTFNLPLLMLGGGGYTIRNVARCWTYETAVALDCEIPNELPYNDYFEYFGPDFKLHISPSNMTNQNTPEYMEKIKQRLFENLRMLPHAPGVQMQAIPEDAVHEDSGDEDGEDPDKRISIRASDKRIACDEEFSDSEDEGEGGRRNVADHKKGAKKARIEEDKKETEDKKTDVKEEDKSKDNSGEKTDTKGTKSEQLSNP

Histone deacetylase 3 [3] = biological target: T3, Histone deacetylase 3 (Homo sapiens, UniProt O15379); experiment: Inhibition of HDAC3 (unknown origin)
T3 sequence (O15379 whole entry): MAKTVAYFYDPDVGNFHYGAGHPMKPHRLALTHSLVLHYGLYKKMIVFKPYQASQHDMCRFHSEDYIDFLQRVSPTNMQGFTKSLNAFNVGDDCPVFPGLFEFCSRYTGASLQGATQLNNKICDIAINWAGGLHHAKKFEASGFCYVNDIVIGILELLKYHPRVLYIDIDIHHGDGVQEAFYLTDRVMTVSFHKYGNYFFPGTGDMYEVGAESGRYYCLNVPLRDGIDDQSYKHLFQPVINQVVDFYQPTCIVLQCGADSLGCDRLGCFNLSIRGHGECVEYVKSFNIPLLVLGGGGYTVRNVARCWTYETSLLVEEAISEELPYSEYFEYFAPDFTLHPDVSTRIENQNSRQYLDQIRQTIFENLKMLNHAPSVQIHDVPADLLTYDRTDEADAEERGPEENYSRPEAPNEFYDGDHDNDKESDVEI

[4] = biological target: T4, Protein deacetylase HDAC6 (Homo sapiens, UniProt Q9UBN7); experiment: Inhibition of HDAC6 (unknown origin)
T4 sequence (Q9UBN7 whole entry): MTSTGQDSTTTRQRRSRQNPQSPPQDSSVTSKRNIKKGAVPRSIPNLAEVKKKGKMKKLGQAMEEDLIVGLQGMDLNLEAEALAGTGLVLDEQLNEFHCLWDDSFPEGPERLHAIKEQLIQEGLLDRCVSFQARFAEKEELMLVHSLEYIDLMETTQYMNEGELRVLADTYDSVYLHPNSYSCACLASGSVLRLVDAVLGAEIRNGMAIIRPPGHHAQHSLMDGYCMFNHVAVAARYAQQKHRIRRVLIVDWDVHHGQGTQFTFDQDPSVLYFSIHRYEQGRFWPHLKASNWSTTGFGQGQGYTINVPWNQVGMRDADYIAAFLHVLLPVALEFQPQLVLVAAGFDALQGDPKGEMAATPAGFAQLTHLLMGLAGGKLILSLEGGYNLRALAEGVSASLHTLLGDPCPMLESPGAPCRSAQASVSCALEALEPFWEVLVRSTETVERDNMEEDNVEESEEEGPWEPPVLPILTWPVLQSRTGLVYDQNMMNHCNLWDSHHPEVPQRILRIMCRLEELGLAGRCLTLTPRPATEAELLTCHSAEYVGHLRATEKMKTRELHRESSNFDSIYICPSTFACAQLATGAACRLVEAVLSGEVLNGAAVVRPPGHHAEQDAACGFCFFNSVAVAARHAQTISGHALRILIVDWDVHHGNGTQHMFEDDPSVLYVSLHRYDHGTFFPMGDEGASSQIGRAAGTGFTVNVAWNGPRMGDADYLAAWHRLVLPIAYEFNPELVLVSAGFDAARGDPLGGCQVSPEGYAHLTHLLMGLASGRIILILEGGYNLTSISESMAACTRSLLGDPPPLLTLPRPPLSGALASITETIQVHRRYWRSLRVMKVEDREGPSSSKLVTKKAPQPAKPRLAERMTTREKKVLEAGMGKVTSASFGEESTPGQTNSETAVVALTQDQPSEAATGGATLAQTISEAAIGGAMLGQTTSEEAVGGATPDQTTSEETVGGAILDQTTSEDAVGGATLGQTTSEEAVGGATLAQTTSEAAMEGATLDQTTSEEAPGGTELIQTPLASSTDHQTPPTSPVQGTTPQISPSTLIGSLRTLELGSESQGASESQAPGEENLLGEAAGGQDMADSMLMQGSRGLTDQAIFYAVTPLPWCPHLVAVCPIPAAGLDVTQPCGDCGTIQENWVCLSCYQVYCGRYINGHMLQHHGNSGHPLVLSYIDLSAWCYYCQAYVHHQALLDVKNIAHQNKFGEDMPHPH

[5] = system: Panel NCI-60 (60 carcinoma cell lines); experiment: Cytotoxicity against human Panel NCI-60 (60 carcinoma cell lines) cells assessed as cell growth inhibition; type: functional, cell-based
A549 [6] = experiment: Anti-proliferative activity against human A549 cells assessed as cell growth inhibition by MTT assay; type: functional, cell-based
SMMC-7721 = experiment: cells; type: functional, cell-based; conditions: Homo sapiens, SMMC-7721, 48 h
Cortical neurone = experiment: Neuroprotective activity against glutamate-induced mouse primary cortical neurons assessed as neuronal viability incubated for 24 hrs by MTT assay; type: functional, cell-based
[7] = biological target: Protein-glutamine gamma-glutamyltransferase (Homo sapiens, UniProt P21980); experiment: Inhibition of recombinant human TG2 using N-Cbz-Glu(gamma-p-nitrophenylester) as substrate measured for 10 mins by absorbance based microplate reader analysis
Chain of Protein-glutamine gamma-glutamyltransferase (P21980 whole entry): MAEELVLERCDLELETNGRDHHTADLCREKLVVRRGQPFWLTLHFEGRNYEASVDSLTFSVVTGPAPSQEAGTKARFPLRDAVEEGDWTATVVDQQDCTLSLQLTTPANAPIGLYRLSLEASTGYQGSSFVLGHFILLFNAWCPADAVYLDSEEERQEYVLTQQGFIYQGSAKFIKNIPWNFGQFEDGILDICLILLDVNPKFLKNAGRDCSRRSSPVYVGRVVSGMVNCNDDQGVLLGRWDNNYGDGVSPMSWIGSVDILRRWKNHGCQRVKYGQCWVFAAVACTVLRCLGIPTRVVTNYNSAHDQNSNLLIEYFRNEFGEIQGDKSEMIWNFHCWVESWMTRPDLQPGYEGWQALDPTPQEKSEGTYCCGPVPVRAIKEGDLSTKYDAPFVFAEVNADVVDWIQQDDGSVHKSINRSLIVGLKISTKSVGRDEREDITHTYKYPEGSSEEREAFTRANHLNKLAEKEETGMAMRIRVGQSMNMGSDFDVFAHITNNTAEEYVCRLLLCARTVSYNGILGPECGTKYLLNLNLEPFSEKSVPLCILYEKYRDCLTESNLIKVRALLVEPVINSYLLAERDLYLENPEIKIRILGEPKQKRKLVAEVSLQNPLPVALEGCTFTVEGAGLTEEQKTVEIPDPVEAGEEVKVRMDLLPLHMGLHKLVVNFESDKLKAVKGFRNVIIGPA

DU-145 [8] = experiment: Cytotoxicity against human DU-145 cells assessed as cell growth inhibition; type: functional, cell-based
Histone deacetylase 8 [9] = biological target: T5, Histone deacetylase 8 (Homo sapiens, UniProt Q9BY41); experiment: Inhibition of HDAC8 (unknown origin)
T5 sequence (Q9BY41 whole entry): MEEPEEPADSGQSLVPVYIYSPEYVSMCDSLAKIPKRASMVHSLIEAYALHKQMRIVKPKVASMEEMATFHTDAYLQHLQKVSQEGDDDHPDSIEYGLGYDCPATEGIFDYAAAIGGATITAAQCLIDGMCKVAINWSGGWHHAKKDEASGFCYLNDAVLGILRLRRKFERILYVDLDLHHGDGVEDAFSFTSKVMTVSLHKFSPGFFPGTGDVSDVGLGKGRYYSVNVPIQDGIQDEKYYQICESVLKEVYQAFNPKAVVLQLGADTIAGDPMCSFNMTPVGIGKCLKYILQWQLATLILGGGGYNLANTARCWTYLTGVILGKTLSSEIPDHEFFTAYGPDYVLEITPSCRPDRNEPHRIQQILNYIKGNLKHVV

[10] = biological target: Phosphatidylinositol 4,5-bisphosphate 3-kinase catalytic subunit alpha isoform (Homo sapiens, UniProt P42336); experiment: Inhibition of PI3K-alpha (unknown origin)
DU-145 [11] = experiment: Antiproliferative activity against human DU-145 cells assessed as cell growth inhibition incubated for 48 hrs by MTT assay; type: functional, cell-based; conditions: DU-145, 48 h
HepG2 = experiment: Antiproliferative activity against human HepG2 cells assessed as cell growth inhibition incubated for 48 hrs by MTT assay; type: functional, cell-based; conditions: HepG2, 48 h
Histone deacetylase 1 [12] = biological target: T1, Histone deacetylase 1; experiment: Inhibition of full-length recombinant human HDAC1 expressed in baculovirus infected Hi-5 insect cells using AcLys-Tyr-Lys(e-acetyl)-AMC as substrate incubated for 24 hrs by enzymatic assay
K562 = experiment: Antiproliferative activity against human K562 cells assessed as cell growth inhibition incubated for 48 hrs by MTT assay; type: functional, cell-based; conditions: K562, 48 h
[13] = biological target: T6, High affinity cGMP-specific 3',5'-cyclic phosphodiesterase 9A (Homo sapiens, UniProt O76083); experiment: Inhibition of N-terminal GST-tagged full-length human PDE9A2 expressed in baculovirus infected Sf9 insect cells using cGMP as substrate incubated for 30 mins by HTRF assay
T6 sequence (O76083 whole entry, the tested form may be a part): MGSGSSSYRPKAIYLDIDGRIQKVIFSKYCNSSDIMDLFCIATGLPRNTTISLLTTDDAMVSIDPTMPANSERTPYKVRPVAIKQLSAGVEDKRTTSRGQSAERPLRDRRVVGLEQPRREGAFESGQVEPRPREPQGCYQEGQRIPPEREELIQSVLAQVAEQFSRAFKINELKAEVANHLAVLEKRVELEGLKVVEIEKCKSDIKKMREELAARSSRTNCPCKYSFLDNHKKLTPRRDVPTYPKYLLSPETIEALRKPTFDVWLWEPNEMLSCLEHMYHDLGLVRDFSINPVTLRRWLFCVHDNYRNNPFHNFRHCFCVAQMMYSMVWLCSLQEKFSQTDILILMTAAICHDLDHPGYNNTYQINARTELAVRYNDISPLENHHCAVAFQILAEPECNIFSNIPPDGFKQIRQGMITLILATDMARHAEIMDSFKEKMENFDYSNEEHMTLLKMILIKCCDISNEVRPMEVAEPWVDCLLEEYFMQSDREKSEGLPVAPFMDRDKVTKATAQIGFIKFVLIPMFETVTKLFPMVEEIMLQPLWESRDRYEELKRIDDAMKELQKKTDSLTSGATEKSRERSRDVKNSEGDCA

Histone deacetylase 1 [14] = biological target: T1, Histone deacetylase 1; experiment: Inhibition of C-terminal 6xHis/FLAG-tagged full-length recombinant human HDAC1 (1 to 482 residues) expressed in Sf9 insect cells using fluorogenic substrate incubated for 30 mins by fluorescence based plate reader analysis
[15] = biological target: cGMP-specific 3',5'-cyclic phosphodiesterase (Homo sapiens, UniProt O76074); experiment: Inhibition of N-terminal GST-tagged full-length recombinant human PDE5A1 (1 to 875 residues) expressed in Sf9 insect cells using cGMP as substrate incubated for 30 mins by HTRF assay
[16] = biological target: T4, Protein deacetylase HDAC6; experiment: Inhibition of full-length recombinant human HDAC6 (1 to 1215 residues) expressed in Sf9 insect cells using fluorogenic substrate incubated for 30 mins by fluorescence based plate reader analysis
[17] = biological target: Protein kinase C alpha type (Mus musculus, UniProt P20444); experiment: Binding affinity to mouse PKC-alpha assessed as inhibition constant
Histone deacetylase 1 [18] = biological target: T1, Histone deacetylase 1; experiment: Inhibition of recombinant human HDAC1 expressed in baculovirus infected Hi-5 insect cells using Ac-Lys-Tyr-Lys (epsilon-acetyl)-AMC as substrate incubated for 3 to 24 hrs by fluorescence based plate reader analysis
Histone deacetylase 3 [19] = biological target: T3, Histone deacetylase 3; experiment: Inhibition of recombinant human HDAC3 expressed in baculovirus infected Hi-5 insect cells using Ac-Lys-Tyr-Lys (epsilon-acetyl)-AMC as substrate incubated for 3 to 24 hrs by fluorescence based plate reader analysis
A549 [20] = experiment: Cytotoxicity against human A549 cells assessed as inhibition of cell proliferation incubated for 72 hrs by MTT assay; type: functional, cell-based; conditions: A549, 72 h
HCT-116 = experiment: Cytotoxicity against human HCT-116 cells assessed as inhibition of cell proliferation incubated for 72 hrs by MTT assay; type: functional, cell-based; conditions: HCT-116, 72 h
Histone deacetylase 2 [21] = biological target: T2, Histone deacetylase 2; experiment: Inhibition of recombinant human HDAC2 expressed in baculovirus infected Hi-5 insect cells using Ac-Lys-Tyr-Lys (epsilon-acetyl)-AMC as substrate incubated for 3 to 24 hrs by fluorescence based plate reader analysis
[22] = biological target: 72 kDa type IV collagenase (Homo sapiens, UniProt P08253); experiment: Inhibition of MMP2 (unknown origin) using chromogenic substrate incubated for 1 hr followed by substrate addition measured for 30 mins by microplate photometry
A549 [23] = experiment: Antiinvasive activity against human A549 cells assessed as reduction in cell invasion incubated for 24 hrs by microplate reader analysis relative to control; type: functional; parameters: scale not given: the % may be the effect or the level left
Histone deacetylase 8 [24] = biological target: T5, Histone deacetylase 8; experiment: Inhibition of recombinant human HDAC8 using Fluor-de-lys substrate by fluorescence based microplate reader analysis
[25] = biological target: T6, High affinity cGMP-specific 3',5'-cyclic phosphodiesterase 9A; experiment: Inhibition of PDE9 (unknown origin)
[26] = Inhibition of PDE5 (unknown origin); parameters: species or system Homo sapiens

Chain of Histone deacetylase 5 (Q9UQL6 whole entry): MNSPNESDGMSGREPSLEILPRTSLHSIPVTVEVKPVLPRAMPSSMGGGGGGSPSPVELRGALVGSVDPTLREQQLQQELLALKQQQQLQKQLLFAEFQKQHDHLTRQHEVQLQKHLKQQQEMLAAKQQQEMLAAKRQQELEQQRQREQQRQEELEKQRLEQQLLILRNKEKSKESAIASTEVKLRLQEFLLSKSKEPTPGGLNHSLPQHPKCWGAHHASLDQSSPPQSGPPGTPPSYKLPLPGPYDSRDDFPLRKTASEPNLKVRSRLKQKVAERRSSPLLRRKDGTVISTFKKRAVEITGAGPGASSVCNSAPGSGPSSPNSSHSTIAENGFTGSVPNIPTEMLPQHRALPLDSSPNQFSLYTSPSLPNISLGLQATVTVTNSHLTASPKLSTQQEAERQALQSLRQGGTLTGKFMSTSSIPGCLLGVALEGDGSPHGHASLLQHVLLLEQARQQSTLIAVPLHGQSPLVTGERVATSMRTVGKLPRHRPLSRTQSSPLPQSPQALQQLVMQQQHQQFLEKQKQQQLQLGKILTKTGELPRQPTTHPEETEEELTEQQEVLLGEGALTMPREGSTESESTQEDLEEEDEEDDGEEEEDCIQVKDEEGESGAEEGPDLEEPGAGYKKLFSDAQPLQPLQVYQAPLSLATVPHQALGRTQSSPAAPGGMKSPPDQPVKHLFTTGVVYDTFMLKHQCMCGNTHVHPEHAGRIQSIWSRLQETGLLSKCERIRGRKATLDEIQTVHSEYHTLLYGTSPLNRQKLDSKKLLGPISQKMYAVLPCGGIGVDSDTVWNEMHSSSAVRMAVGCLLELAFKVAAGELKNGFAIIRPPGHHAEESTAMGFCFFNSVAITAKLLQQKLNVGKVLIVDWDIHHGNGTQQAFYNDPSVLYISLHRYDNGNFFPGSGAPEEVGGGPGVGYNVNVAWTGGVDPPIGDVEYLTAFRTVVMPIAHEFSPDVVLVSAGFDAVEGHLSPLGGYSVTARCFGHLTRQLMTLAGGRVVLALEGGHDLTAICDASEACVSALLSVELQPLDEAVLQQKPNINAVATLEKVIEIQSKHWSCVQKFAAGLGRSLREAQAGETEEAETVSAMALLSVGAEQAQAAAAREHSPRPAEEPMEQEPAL
Chain of Histone deacetylase 4 (P56524 whole entry): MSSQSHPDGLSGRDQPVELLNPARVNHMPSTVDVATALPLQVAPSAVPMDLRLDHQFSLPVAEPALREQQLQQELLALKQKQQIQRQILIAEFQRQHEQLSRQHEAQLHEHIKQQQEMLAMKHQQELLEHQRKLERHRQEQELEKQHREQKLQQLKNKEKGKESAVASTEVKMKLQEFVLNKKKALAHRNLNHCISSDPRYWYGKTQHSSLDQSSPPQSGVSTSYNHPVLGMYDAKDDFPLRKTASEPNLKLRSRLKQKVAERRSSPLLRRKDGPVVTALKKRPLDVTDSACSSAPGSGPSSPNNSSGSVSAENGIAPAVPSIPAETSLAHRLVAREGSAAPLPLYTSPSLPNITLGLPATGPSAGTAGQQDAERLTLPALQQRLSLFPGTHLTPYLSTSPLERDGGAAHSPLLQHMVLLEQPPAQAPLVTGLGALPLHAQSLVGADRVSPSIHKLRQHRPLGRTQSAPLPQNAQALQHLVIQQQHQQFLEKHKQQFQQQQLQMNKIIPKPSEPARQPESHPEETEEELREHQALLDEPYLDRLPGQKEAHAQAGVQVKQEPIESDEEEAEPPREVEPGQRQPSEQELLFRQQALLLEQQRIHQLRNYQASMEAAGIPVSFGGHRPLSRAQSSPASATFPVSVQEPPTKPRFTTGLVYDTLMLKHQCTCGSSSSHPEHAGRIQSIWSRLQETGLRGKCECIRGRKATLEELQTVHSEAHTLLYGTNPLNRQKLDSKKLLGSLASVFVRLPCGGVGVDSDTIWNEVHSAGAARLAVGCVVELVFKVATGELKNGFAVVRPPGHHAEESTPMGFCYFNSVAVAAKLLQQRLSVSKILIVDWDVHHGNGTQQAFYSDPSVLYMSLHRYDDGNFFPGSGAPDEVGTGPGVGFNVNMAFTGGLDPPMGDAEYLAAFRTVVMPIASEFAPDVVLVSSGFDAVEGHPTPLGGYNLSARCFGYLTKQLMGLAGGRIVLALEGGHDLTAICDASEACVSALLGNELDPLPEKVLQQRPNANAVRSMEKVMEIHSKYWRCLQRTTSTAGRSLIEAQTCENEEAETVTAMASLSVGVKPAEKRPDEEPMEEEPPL

SMILES: Cn1c(CCCC(=O)O)nc2cc(N(CCCl)CCCl)ccc21 [BENDAMUSTINE]
IC50 (Histone deacetylase 5): 0.01 µM | IC50 (Histone deacetylase 4): 0.01 µM | IC50 (Histone deacetylase 1 [1]): 0.01 µM | IC50 (Histone deacetylase 2 [2]): 0.01 µM | IC50 (Histone deacetylase 3 [3]): 0.01 µM | IC50 [4]: 0.01 µM | IC50 [5]: 2.2 µM

SMILES: CC(C)=CCC/C(C)=C/CC/C(C)=C/CSc1ccccc1C(=O)O [SALIRASIB]
IC50 (SMMC-7721): 6.7 µM

SMILES: O=C(CCCCNC(=S)Nc1ccc(/C=C/C(=O)c2cccnc2)cc1)NO
IC50 (Histone deacetylase 1 [1]): 3.38 µM | EC50 (Cortical neurone): 3.7 µM | IC50 [7]: 13.3 µM | IC50 [4]: 4.1 µM

SMILES: O=C(NO)c1ccc(/C=N/NC(=O)c2cc(N3CCOCC3)nc(-c3cccc4[nH]ncc34)n2)cc1
IC50 [4]: 0.0346 µM | IC50 [10]: 0.00834 µM

SMILES: CCN1CCN(c2cc(Nc3ncc(C(=O)Nc4ccccc4N)s3)ncn2)CC1
IC50 (DU-145 [11]): 5.79 µM | IC50 (HepG2): 16.5 µM | IC50 (Histone deacetylase 1 [12]): 0.15 µM | IC50 (K562): 2.56 µM

SMILES: CC(=O)SCCCCCCCOc1ccc2c(c1)N(C)[C@H](C(C)C)C(=O)N[C@@H](CO)C2
Ki [17]: 0.0045 µM

SMILES: COc1cc([C@@H]2c3cc4c(cc3C[C@H]3COC(=O)[C@@H]32)OCO4)cc(OC)c1OC(=O)CC(=O)Nc1ccc(C(=O)Nc2ccccc2N)cc1
IC50 (Histone deacetylase 1 [18]): 11 µM | IC50 (Histone deacetylase 3 [19]): 5.3 µM | IC50 (A549 [20]): 0.037 µM | IC50 (HCT-116): 0.04 µM | IC50 (Histone deacetylase 2 [21]): 0.75 µM

SMILES: COc1ccc(CNC(=O)[C@H](CCC(=O)O)NC(=O)Cc2ccc(Br)cc2)cc1
IC50 [22]: 6.4 µM | Activity (A549 [23]): 34% | IC50 (Histone deacetylase 8 [24]): 2.89 µM

More lines, main results first:

IC50 (A549 [6]): 0.72 µM
SMILES: O=C(CCCCCOc1ccc(-c2nc3ccccc3c3cc(-c4ccccc4)nn23)cc1)NO

IC50 (Histone deacetylase 1 [1]): 0.047 µM | IC50 [4]: 0.02 µM | IC50 (Histone deacetylase 8 [9]): 0.22 µM
SMILES: COc1cccc2c1C(=O)c1c(O)c3c(c(O)c1C2=O)C[C@@](O)(C(C)=O)C[C@@H]3O[C@H]1C[C@H](N)[C@H](O)[C@H](C)O1 [DAUNORUBICIN]
IC50 (DU-145 [8]): 0.13 µM

IC50 [13]: > 10 µM | IC50 (Histone deacetylase 1 [14]): 0.31 µM | IC50 [15]: 0.06 µM | IC50 [16]: 0.081 µM
SMILES: CCCc1nn(C)c2c(=O)[nH]c(-c3cc(CC4CC(C(=O)NO)C4)ccc3OCC)nc12 (stereo unspecified)

IC50 (Histone deacetylase 1 [1]): 0.593 µM | IC50 [25]: 0.107 µM | IC50 (Histone deacetylase 2 [2]): 3.53 µM | IC50 [4]: 0.04 µM | IC50 [26]: > 10 µM
SMILES: C[C@H]1CN(Cc2ccc(C(=O)NO)cc2)C[C@@H]1c1nc2c(cnn2C2CCCC2)c(=O)[nH]1
